In ChEMBL document CHEMBL4616597, “Could 5'-N and S ProTide analogues work as prodrugs of antiviral agents?” (Bioorg Med Chem Lett, 2020):
Activity calls are given as the source filed them. The calls are words filed in the database; no cut-off is given here.

Columns and labels:
[1] = Prodrug activation assessed as carboxypeptidase Y (unknown origin) mediated signal shift at 13.2 ppm by P-NMR spectroscopy; settings: human
[2] = Prodrug activation assessed as carboxypeptidase Y (unknown origin) mediated metabolite formation at 3.3 ppm by P-NMR spectroscopy; format: ADME; settings: human
[3] = system: Dengue virus; test: Antiviral activity against Dengue virus; format: functional, organism-based
[4] = system: West Nile virus; test: Antiviral activity against West Nile virus; format: functional, organism-based
[5] = Prodrug activation assessed as carboxypeptidase Y (unknown origin) mediated (2S)-2-((((2R,3R,4R,5R)-5-(6-amino-9H-purin-9-yl)-3,4-dihydroxy-4-methyltetrahydrofuran-2-yl)methylamino)(phenoxy)phosphorylamino)propanoic acid intermediate formation measured after 5 mins by P-NMR spectroscopy; settings: human
[6] = Prodrug activation assessed as carboxypeptidase Y (unknown origin) mediated formation of metabolite from (2S)-2-((((2R,3R,4R,5R)-5-(6-amino-9H-purin-9-yl)-3,4-dihydroxy-4-methyltetrahydrofuran-2-yl)methylamino)(phenoxy)phosphorylamino)propanoic acid intermediate at 3.3 ppm by P-NMR spectroscopy; format: ADME; settings: human
[7] = system: Zika virus; test: Antiviral activity against Zika virus; format: functional, organism-based
[8] = Prodrug activation assessed as carboxypeptidase Y (unknown origin) mediated cleavage of diastereoisomer measured after 5 mins by P-NMR spectroscopy; settings: human
[9] = Prodrug activation assessed as carboxypeptidase Y (unknown origin) mediated signal shift at 13.5 ppm by P-NMR spectroscopy; settings: human
[10] = system: Tick-borne encephalitis virus; test: Antiviral activity against TBEV; format: functional, organism-based
[11] = system: Coxsackievirus; test: Antiviral activity against CVB3; format: functional, organism-based; settings: B3
[12] = Prodrug activation in human HepG2 cell extract assessed as metabolite formation at 100 uM measured after 4 hrs by HPLC analysis; format: ADME, cell-based; settings: hepg2, 4 h
[13] = system: Human immunodeficiency virus; test: Antiviral activity against HIV; format: functional, organism-based
[14] = Prodrug activation assessed as carboxypeptidase Y (unknown origin) mediated cleavage of diastereoisomer measured after 120 mins by P-NMR spectroscopy; settings: human, 2 h
[15] = Prodrug activation assessed as carboxypeptidase Y (unknown origin) mediated metabolite formation at 3.1 ppm measured after 5 mins by P-NMR spectroscopy; format: ADME; settings: human
[16] = Prodrug activation assessed as carboxypeptidase Y (unknown origin) mediated cleavage at ribose sugar region resulting in formation of 2R,3R,4R,5S)-2-(6-aminopurin-9-yl)-3-methyl-5-(sulfanylmethyl)tetrahydrofuran-3,4-diol measured after 120 mins by 13C-APT spectra analysis; settings: human, 2 h
[17] = Prodrug activation assessed as carboxypeptidase Y (unknown origin) mediated intermediate metabolite formation by P-NMR spectroscopy; format: ADME; settings: human
[18] = Prodrug activation assessed as carboxypeptidase Y (unknown origin) mediated cleavage at phenyl region resulting in formation of (2S)-2-[[hydroxy(phenoxy)phosphoryl]amino]propanoic acid measured after 120 mins by 13C-APT spectra analysis; settings: human, 2 h

SMILES | Activity [1] | Drug metabolism [2] | Activity [3] | Activity [4] | Drug metabolism [5] | Drug metabolism [6] | Activity [7] | Activity [8] | Activity [9] | Activity [10] | Activity [11] | Drug metabolism [12] | Activity [13] | Activity [14] | Drug metabolism [15] | Drug metabolism [16] | Drug metabolism [17] | Drug metabolism [18]
COC(=O)[C@H](C)NP(=O)(NC[C@H]1O[C@@H](n2cnc3c(N)ncnc32)[C@](C)(O)[C@@H]1O)Oc1ccccc1 (some centres not stated) | Active | Metabolite_Detected | inactive | inactive | Metabolite_Detected | Metabolite_Detected | inactive | Not Active | Active | inactive | inactive | Metabolite_Detected | inactive | Not Active |  |  |  | 
COC(=O)[C@H](C)NP(=O)(Oc1ccccc1)SC[C@H]1O[C@@H](n2cnc3c(N)ncnc32)[C@](C)(O)[C@@H]1O (some centres not stated) |  |  | inactive | inactive |  |  | inactive | Active |  | inactive | inactive | Metabolite_Detected | inactive | Not Active | Metabolite_Detected | Metabolite_Detected | Metabolite_Notdetected | Metabolite_Detected
